Reference: the supplement of paper PMC10307832

What was measured:
Assay in all cases: relative viability (nuclei count vs DMSO), 5 days (fraction); higher = more cells survive
[1] = compound: CCN1CCC(CC1)N2C=C(N=N2)CNC3=CC4=C(C(=CN=C4C(=C3)Cl)C#N)NC5=CC(=C(C=C5)F)Cl [KIN001-266] + Cc1nc(NC(=O)N2CCC[C@H]2C(N)=O)sc1-c1ccnc(C(C)(C)C(F)(F)F)c1 [Alpelisib] (partner 2 µM)
In short: (§1)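 Lung cancer cell lines were pin-tool dosed in 1536-well plates on the day after seeding, with either a lone drug or a fixed anchor-drug dose plus five library-drug doses (not always all listed) in √10 steps. Nuclei were counted on 4× images after 5 days. Relative viability is the ratio of treated-well to vehicle-well nuclei counts, with each value a median of duplicate plates.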

[2] = compound: CCN1CCC(CC1)N2C=C(N=N2)CNC3=CC4=C(C(=CN=C4C(=C3)Cl)C#N)NC5=CC(=C(C=C5)F)Cl [KIN001-266] + CS(=O)(=O)CCNCc1ccc(-c2ccc3ncnc(Nc4ccc(OCc5cccc(F)c5)c(Cl)c4)c3c2)o1 [Lapatinib] (partner 2 µM)
In short: as §1

[3] = compound: CCN1CCC(CC1)N2C=C(N=N2)CNC3=CC4=C(C(=CN=C4C(=C3)Cl)C#N)NC5=CC(=C(C=C5)F)Cl [KIN001-266] + COc1cccc2cc(-c3nc([C@H]4CC[C@H](C(=O)O)CC4)n4ncnc(N)c34)[nH]c12 [OSI-027] (partner 0.5 µM)
In short: as §1

[4] = compound: CCN1CCC(CC1)N2C=C(N=N2)CNC3=CC4=C(C(=CN=C4C(=C3)Cl)C#N)NC5=CC(=C(C=C5)F)Cl [KIN001-266] + C[C@]1(O)C[C@@H](c2nc(-c3ccc4ccc(-c5ccccc5)nc4c3)c3c(N)nccn32)C1 [Linsitinib] (partner 1 µM)
In short: as §1

Cell Line | relative viability ([1]; first compound 0.08 µM) | relative viability ([1]; first compound 0.253 µM) | relative viability ([1]; first compound 0.8 µM) | relative viability ([1]; first compound 2.53 µM) | relative viability ([1]; first compound 8 µM) | relative viability ([2]; first compound 0.08 µM) | relative viability ([2]; first compound 0.253 µM) | relative viability ([2]; first compound 0.8 µM) | relative viability ([2]; first compound 2.53 µM) | relative viability ([2]; first compound 8 µM) | relative viability ([3]; first compound 0.08 µM) | relative viability ([3]; first compound 0.253 µM) | relative viability ([3]; first compound 0.8 µM) | relative viability ([3]; first compound 2.53 µM) | relative viability ([3]; first compound 8 µM) | relative viability ([4]; first compound 0.08 µM) | relative viability ([4]; first compound 0.253 µM) | relative viability ([4]; first compound 0.8 µM) | relative viability ([4]; first compound 2.53 µM) | relative viability ([4]; first compound 8 µM)
COR-L 105 | 1.15 | 0.859 | 1.14 | 0.9 | 0.896 | 0.349 | 0.393 | 0.34 | 0.417 | 0.381 | 0.683 | 0.822 | 0.66 | 0.645 | 0.576 | 0.974 | 0.932 | 0.991 | 0.93 | 0.846
EKVX | 0.871 | 0.817 | 0.83 | 0.807 | 0.877 | 0.284 | 0.182 | 0.204 | 0.202 | 0.171 | 0.702 | 0.706 | 0.683 | 0.685 | 0.52 | 1.01 | 0.956 | 1.04 | 0.963 | 1.04
EMC-BAC-2 | 0.718 | 0.751 | 0.749 | 0.743 | 0.733 | 0.906 | 0.907 | 0.879 | 0.917 | 0.942 | 0.456 | 0.448 | 0.373 | 0.419 | 0.365 | 0.781 | 0.792 | 0.877 | 0.86 | 0.862
EPLC-272H | 1.05 | 0.874 | 0.938 | 0.842 | 0.74 | 1.03 | 0.982 | 1.05 | 0.732 | 0.797 | 0.306 | 0.303 | 0.242 | 0.249 | 0.264 | 1.26 | 1.34 | 0.842 | 1.15 | 1.16
H3255 | 0.685 | 0.737 | 0.756 | 0.785 | 0.475 | 0.346 | 0.219 | 0.283 | 0.251 | 0.294 | 0.555 | 0.618 | 0.52 | 0.542 | 0.606 | 0.841 | 1.03 | 0.884 | 0.841 | 0.713
HARA | 0.771 | 0.77 | 0.835 | 0.847 | 0.59 | 0.929 | 0.689 | 0.842 | 0.823 | 0.657 | 0.559 | 0.644 | 0.395 | 0.501 | 0.276 | 0.863 | 0.851 | 0.925 | 0.935 | 0.735
HCC-15 | 0.867 | 0.849 | 0.766 | 0.781 | 0.586 | 0.779 | 0.851 | 0.731 | 0.734 | 0.646 | 0.71 | 0.699 | 0.63 | 0.524 | 0.518 | 0.812 | 0.886 | 0.761 | 0.734 | 0.7
HCC-44 | 0.806 | 0.838 | 0.805 | 0.868 | 0.651 | 0.964 | 1.03 | 0.959 | 0.985 | 1.02 | 0.5 | 0.664 | 0.605 | 0.441 | 0.593 | 0.669 | 0.678 | 0.687 | 0.742 | 0.622
HCC-78 | 0.302 | 0.346 | 0.377 | 0.46 | 0.411 | 0.79 | 0.612 | 0.597 | 0.731 | 0.773 | 0.34 | 0.39 | – | 0.308 | 0.37 | 0.465 | 0.516 | 0.451 | 0.459 | 0.642
HCC-366 | 0.495 | 0.492 | 0.583 | 0.374 | 0.364 | 0.911 | 1.03 | 1 | 1.05 | 1.02 | 1.14 | 0.977 | 0.936 | 0.826 | 0.412 | 0.547 | 0.607 | 0.821 | 0.476 | 0.545
HCC-827 | 0.953 | 1.04 | – | 0.948 | 0.648 | 0.2 | 0.18 | – | 0.191 | 0.217 | 0.682 | 0.787 | 0.495 | 0.734 | 0.661 | 0.952 | 1.03 | – | 0.945 | 0.841
HOP-62 | 1.09 | 1.21 | 0.967 | 1.02 | 0.84 | 0.944 | 0.801 | 1.13 | 0.815 | 1.09 | 0.888 | 0.893 | 0.877 | 0.765 | 0.797 | 0.961 | 1.01 | 1.09 | 0.945 | 0.439
LC-2-ad | 0.897 | 0.776 | 0.918 | 0.783 | 0.869 | 0.999 | 0.847 | 1.02 | 0.972 | 0.929 | 0.844 | 0.94 | 0.825 | 0.776 | 0.77 | 0.879 | 0.842 | 0.924 | 0.808 | 0.873
LCLC-97TM1 | 0.268 | 0.217 | 0.236 | 0.222 | 0.236 | 0.836 | 0.868 | 1.14 | 1.04 | 0.844 | 0.636 | 0.69 | 0.45 | 0.557 | 0.532 | 0.226 | 0.197 | 0.18 | 0.176 | 0.192
LK-2 | 1.3 | – | 1.17 | – | 1.11 | 1.06 | 0.836 | 0.884 | 0.834 | 1.05 | 0.215 | 0.187 | 0.199 | 0.168 | 0.222 | 0.583 | 0.603 | 0.64 | 0.516 | 0.655
